Laboratory results as given in patent US20180282331A1, “7-Oxo -6-(sulfooxy)- 1,6-diazabicyclo [3.2.1] octane containing compounds and their use in treatment of bacterial infections (changed by PCT to: 7-OXO -6-(SULFOOXY)- 1,6-DIAZABICYCLO [3.2.1] OCTANE CONTAINING COMPOUNDS AND THEIR USE IN TREATMENT OF BACTERIAL INFECTIONS” (WOCKHARDT LIMITED, priority 2015, published 2018).

What was measured:
Format in all cases: cell-based
[1] = system: E. coli 7 MP; experiment: MIC of Ceftazidime in combination with compound (4 mcg/ml), agar dilution; settings: Escherichia coli, Ceftazidime alone or with constant 4 mcg/ml of compound
Protocol: (§1) The biological activity of representative compounds according to the invention against various bacterial strains was investigated. The Minimum Inhibitory Concentration (MIC) determination for the combinations was carried out in Muller Hinton Agar (MHA) (BD, USA) according to Clinical and Laboratory Standards Institute (CLSI) recommendations, (Clinical and Laboratory Standards Institute (CLSI), Performance Standards for Antimicrobial Susceptibility Testing, 20th Informational Supplement, M 100-S20, Volume 30, No. 1, 2010). In short, the test strains were adjusted to deliver about 10^4 CFU per spot with a multipoint inoculator (Applied Quality Services, UK). The plates were poured with MHA containing doubling concentration range of representative compounds according to present invention. The plates were inoculated and were incubated at 35° C. for 18 hours. […] The Table 5 depicts the antibacterial activity profile of compounds according to present invention against various multidrug resistant bacterial strains.
(§2) The combinations of compounds according to present invention were also tested for their antibacterial activity in combination with Ceftazidime. The plates were poured with MHA containing doubling concentration range of Ceftazidime in combination with constant concentration (4 mcg/ml) of representative compounds of Formula (I).

[2] = system: E. coli M 50; experiment: as above; settings: Escherichia coli, M50, Ceftazidime alone or with constant 4 mcg/ml of compound
Protocol: as §1, §2

[3] = system: E. coli NCTC 13352; experiment: as above; settings: Escherichia coli, NCTC13352, Ceftazidime alone or with constant 4 mcg/ml of compound
Protocol: as §1, §2

[4] = system: E. coli NCTC 13353; experiment: as above; settings: Escherichia coli, NCTC13353, Ceftazidime alone or with constant 4 mcg/ml of compound
Protocol: as §1, §2

[5] = system: K. pneumoniae ATCC 700603; experiment: as above; settings: Klebsiella pneumoniae, ATCC700603, Ceftazidime alone or with constant 4 mcg/ml of compound
Protocol: as §1, §2

[6] = system: K. pneumoniae H521; experiment: as above; settings: Klebsiella pneumoniae, Ceftazidime alone or with constant 4 mcg/ml of compound
Protocol: as §1, §2

[7] = system: K. pneumoniae H525; experiment: as above; settings: Klebsiella pneumoniae, Ceftazidime alone or with constant 4 mcg/ml of compound
Protocol: as §1, §2

[8] = system: E. coli 7 MP; experiment: MIC, agar dilution (MHA), compound alone; settings: Escherichia coli; E. coli 7 MP; compound alone; MHA, 35° C., 18 hours; read-out: MIC
Protocol: as §1

[9] = system: E. coli M 50; experiment: MIC, agar dilution (MHA), compound alone; settings: Escherichia coli, M50; E. coli M 50; compound alone; MHA, 35° C., 18 hours; read-out: MIC
Protocol: as §1

[10] = system: E. coli NCTC 13352; experiment: MIC, agar dilution (MHA), compound alone; settings: Escherichia coli, NCTC13352; E. coli NCTC 13352; compound alone; MHA, 35° C., 18 hours; read-out: MIC
Protocol: as §1

[11] = system: E. coli NCTC 13353; experiment: MIC, agar dilution (MHA), compound alone; settings: Escherichia coli, NCTC13353; E. coli NCTC 13353; compound alone; MHA, 35° C., 18 hours; read-out: MIC
Protocol: as §1

[12] = system: K. pneumoniae ATCC 700603; experiment: MIC, agar dilution (MHA), compound alone; settings: Klebsiella pneumoniae, ATCC700603; K. pneumoniae ATCC 700603; compound alone; MHA, 35° C., 18 hours; read-out: MIC
Protocol: as §1

[13] = system: K. pneumoniae H521; experiment: MIC, agar dilution (MHA), compound alone; settings: Klebsiella pneumoniae; K. pneumoniae H521; compound alone; MHA, 35° C., 18 hours; read-out: MIC
Protocol: as §1

[14] = system: K. pneumoniae H525; experiment: MIC, agar dilution (MHA), compound alone; settings: Klebsiella pneumoniae; K. pneumoniae H525; compound alone; MHA, 35° C., 18 hours; read-out: MIC
Protocol: as §1

Structure (SMILES)	MIC [1]	MIC [2]	MIC [3]	MIC [4]	MIC [5]	MIC [6]	MIC [7]	MIC [8]	MIC [9]	MIC [10]	MIC [11]	MIC [12]	MIC [13]	MIC [14]
CCOC(=O)c1nnnn1CCONC(=O)[C@@H]1CC[C@@H]2CN1C(=O)N2OS(=O)(=O)[O-].[Na+] [Example 49]	–	–	–	–	–	–	–	> 32 µg/mL	> 32 µg/mL	> 32 µg/mL	> 32 µg/mL	> 32 µg/mL	> 32 µg/mL	> 32 µg/mL
Cc1nnnn1CCONC(=O)[C@@H]1CC[C@@H]2CN1C(=O)N2OS(=O)(=O)[O-].[Na+] [Example 53]	–	–	–	–	–	–	–	32 µg/mL	> 32 µg/mL	8 µg/mL	4 µg/mL	> 32 µg/mL	16 µg/mL	16 µg/mL
O=C(NOCCn1nnnc1CCO)[C@@H]1CC[C@@H]2CN1C(=O)N2OS(=O)(=O)[O-].[Na+] [Example 56]	–	–	–	–	–	–	–	> 32 µg/mL	4 µg/mL	8 µg/mL	4 µg/mL	> 32 µg/mL	8 µg/mL	16 µg/mL

The next lines start with the values.

MIC [1]	MIC [2]	MIC [3]	MIC [4]	MIC [5]	MIC [6]	MIC [7]	MIC [8]	MIC [9]	MIC [10]	MIC [11]	MIC [12]	MIC [13]	MIC [14]	Structure (SMILES)
> 32 µg/mL	> 32 µg/mL	16 µg/mL	> 32 µg/mL	16 µg/mL	> 32 µg/mL	> 32 µg/mL	–	–	–	–	–	–	–	CC(C)(O/N=C(\C(=O)N[C@@H]1C(=O)N2C(C(=O)[O-])=C(C[n+]3ccccc3)CS[C@H]12)c1csc(N)n1)C(=O)O [Ceftazidime]
–	–	–	–	–	–	–	32 µg/mL	8 µg/mL	8 µg/mL	8 µg/mL	> 32 µg/mL	> 32 µg/mL	> 32 µg/mL	O=C(NOCCn1ncnn1)[C@@H]1CC[C@@H]2CN1C(=O)N2OS(=O)(=O)[O-].[Na+] [Example 50]
–	–	–	–	–	–	–	16 µg/mL	4 µg/mL	8 µg/mL	4 µg/mL	> 32 µg/mL	> 32 µg/mL	> 32 µg/mL	O=C(NOCCn1cnnn1)[C@@H]1CC[C@@H]2CN1C(=O)N2OS(=O)(=O)[O-].[Na+] [Example 51]
–	–	–	–	–	–	–	> 32 µg/mL	16 µg/mL	32 µg/mL	16 µg/mL	> 32 µg/mL	> 32 µg/mL	> 32 µg/mL	O=C(NOCCn1nnc(CCO)n1)[C@@H]1CC[C@@H]2CN1C(=O)N2OS(=O)(=O)[O-].[Na+] [Example 55]
